# From patent publication US20120157439A1, “RAF INHIBITOR COMPOUNDS AND METHODS OF USE THEREOF” (GENENTECH, INC., priority 2009, published 2012)
# Read-outs that look alike come from different tables or passages of the source.
# Target: T1, V600E full-length B-Raf (Homo sapiens, UniProt P15056, V600E)
# T1 construct: 1 μM FSBA-MEK and 20 nM V600E full-length B-Raf; made in house; host or cells: sf9 insect cells (baculovirus)
# Assay: B-Raf IC50 Assay (B-RAF V600E inhibition assay, Example A)
# Assay type: biochemical
# Text: Determining the activity of Raf in the sample is possible by a number of direct and indirect detection methods (US 2004/0082014). Activity of human recombinant B-Raf protein may be assessed in vitro by assay of the incorporation of radio labeled phosphate to recombinant MAP kinase (MEK), a known physiologic substrate of B-Raf, according to US 2004/0127496 and WO 03/022840. The activity/inhibition of V600E full-length B-Raf was estimated by measuring the incorporation of radio labeled phosphate from [γ-33P]ATP into FSBA-modified wild-type MEK (see Example A).
# Activity of human recombinant B-Raf protein may be assessed in vitro by assay of the incorporation of radio labeled phosphate to recombinant MAP kinase (MEK), a known physiologic substrate of B-Raf, according to U.S. Patent Appl. Publication No. 2004/0127496 and WO 03/022840. Catalytically active human recombinant B-Raf protein is obtained by purification from sf9 insect cells infected with a human B-Raf recombinant baculovirus expression vector.
# The activity/inhibition of V600E full-length B-Raf was estimated by measuring the incorporation of radio labeled phosphate from [γ-33P]ATP into FSBA-modified wild-type MEK. The […] assay mixtures contained 25 mM Na Pipes, pH 7.2, 100 mM KCl, 10 mM MgCl2, 5 mM β-glycerophosphate, 100 μM Na Vanadate, 4 μM ATP, 500 nCi [γ-33P]ATP, 1 μM FSBA-MEK and 20 nM V600E full-length B-Raf. Incubations were carried out at 22° C. in a Costar 3365 plate (Corning). Prior to the assay, the B-Raf and FSBA-MEK were preincubated together in assay buffer at 1.5× (20 μL of 30 nM and 1.5 μM, respectively) for 15 minutes, and the assay was initiated by the addition of 10 μL of […]. Following the 60-minute incubation, the assay mixtures were quenched by the addition of 100 μL of 25% TCA, the plate was mixed on a rotary shaker for 1 minute, and the product was captured on a Perkin-Elmer GF/B filter plate using a Tomtec Mach III Harvester. After sealing the bottom of the plate, 35 μL of Bio-Safe II (Research Products International) scintillation cocktail were added to each well and the plate was top-sealed and counted in a Topcount NXT (Packard).
# [1] = B-Raf V600E assay of Example A: less than about 1 μM, read-out: IC50
# [2] = incorporation of radio labeled phosphate from [γ-33P]ATP into FSBA-modified wild-type MEK, 4 μM ATP, 20 nM V600E full-length B-Raf, 60-minute incubation, 22° C., read-out: BRAF V600E IC50
# [3] = B-Raf V600E assay of Example A: less than 100 nM, read-out: IC50
# T1 sequence (P15056 whole entry V600E): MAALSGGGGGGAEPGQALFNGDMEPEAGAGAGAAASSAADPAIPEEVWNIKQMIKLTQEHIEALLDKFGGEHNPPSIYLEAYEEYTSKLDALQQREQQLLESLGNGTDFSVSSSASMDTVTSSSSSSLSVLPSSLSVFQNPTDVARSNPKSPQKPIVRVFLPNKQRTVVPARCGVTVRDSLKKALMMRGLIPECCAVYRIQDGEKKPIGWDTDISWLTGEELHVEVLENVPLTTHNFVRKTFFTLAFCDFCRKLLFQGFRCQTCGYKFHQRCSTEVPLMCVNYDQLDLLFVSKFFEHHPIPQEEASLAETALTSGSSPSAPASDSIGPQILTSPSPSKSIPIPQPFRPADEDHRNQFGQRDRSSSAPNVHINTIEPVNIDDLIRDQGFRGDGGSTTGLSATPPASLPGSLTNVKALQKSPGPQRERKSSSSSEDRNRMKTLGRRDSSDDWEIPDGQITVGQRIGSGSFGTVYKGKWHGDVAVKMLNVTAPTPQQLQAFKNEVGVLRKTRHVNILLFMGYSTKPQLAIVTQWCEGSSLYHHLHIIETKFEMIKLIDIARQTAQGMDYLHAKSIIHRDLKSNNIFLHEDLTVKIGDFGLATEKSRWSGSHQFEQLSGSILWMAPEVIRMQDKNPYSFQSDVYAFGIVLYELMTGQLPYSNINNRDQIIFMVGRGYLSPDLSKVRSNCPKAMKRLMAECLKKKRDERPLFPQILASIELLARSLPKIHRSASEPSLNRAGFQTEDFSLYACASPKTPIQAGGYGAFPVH
IC50 [1] [µM],IC50 [2] [µM],IC50 [3] [µM],SMILES
< 1,0.416,–,"CCCS(=O)(=O)Nc1ccc(F)c(NC(=O)c2csc3c(NC4CCCC4)ncnc23)c1F [Example 54, 4-Cyclopentyl-amino-thieno [3,2-d] pyrimidine-7-carboxylic acid [2,6-difluoro-3-(propane-1-sulfonylamino)-phenyl]-amide]"
< 1,0.00013,< 0.1,"O=C(Nc1c(Cl)ccc(NS(=O)(=O)CCCF)c1Cl)c1csc2c(NC3CC3)ncnc12 [Example 82, 4-Cyclopropyl-amino-thieno [3,2-d] pyrimidine-7-carboxylic acid [2,6-dichloro-3-(3-fluoro-propane-1-sulfonyl-amino)-phenyl]-amide]"
< 1,0.288,–,"CCCS(=O)(=O)Nc1ccc(F)c(NC(=O)c2csc3cncnc23)c1F [Example 108, Thieno[3,2-d]pyrimidine-7-carboxylic acid [2,6-difluoro-3-(propane-1-sulfonylamino)-phenyl]-amide]"
< 1,0.0011,< 0.1,"O=C(Nc1c(F)ccc(NS(=O)(=O)CCCF)c1F)c1csc2c(NC3CC3)ncnc12 [Example 64, 4-Cyclopropylamino-thieno[3,2-d]pyrimidine-7-carboxylic acid [2,6-difluoro-3-(3-fluoro-propane-1-sulfonylamino)-phenyl]amide]"
< 1,0.0211,< 0.1,"CCCS(=O)(=O)Nc1ccc(Cl)c(NC(=O)c2csc3cncnc23)c1F [Example 111, Thieno[3,2-d]pyrimidine-7-carboxylic acid [6-chloro-2-fluoro-3-(propane-1-sulfonylamino)-phenyl]-amide]"
< 1,0.0006,< 0.1,"CCCS(=O)(=O)Nc1ccc(Cl)c(NC(=O)c2csc3c(NCC)ncnc23)c1Cl [Example 76, 4-Ethylamino-thieno[3,2-d] pyrimidine-7-carboxylic acid [2,6-dichloro-3-(propane-1-sulfonyl-amino)-phenyl]-amide]"
< 1,0.00729,< 0.1,"O=C(Nc1c(Cl)ccc(NS(=O)(=O)CCCF)c1F)c1nsc2cncnc12 [Example 112, Isothiazolo[4,5-d] pyrimidine-3-carboxylic acid [6-chloro-2-fluoro-3-(3-fluoro-propane-1-sulfonylamino)-phenyl]-amide]"
< 1,0.902,–,"CCCS(=O)(=O)Nc1ccc(F)c(NC(=O)c2csc3c(NCC(C)(C)C)ncnc23)c1F [Example 58, 4-(2,2-Dimethyl-propylamino)-thieno[3,2-d] pyrimidine-7-carboxylic acid [2,6-difluoro-3-(propane-1-sulfonylamino)-phenyl]-amide]"
< 1,0.0151,< 0.1,"CCCS(=O)(=O)Nc1cc(F)c(F)c(NC(=O)c2csc3c(NC4COC4)ncnc23)c1F [Example 87, 4-(Oxetan-3-ylamino)-thieno[3,2-d] pyrimidine-7-carboxylic acid [2,3,6-trifluoro-5-(propane-1-sulfonyl-amino)-phenyl]amid]"
< 1,0.704,–,"CCCS(=O)(=O)Nc1cc(F)c(F)c(NC(=O)c2csc3c(NC4CCOCC4)ncnc23)c1F [Example 94, 4-(Tetrahydro-pyran-4-ylamino)-thieno[3,2-d] pyrimidine-7-carboxylic acid [2,3,6-trifluoro-5-(propane-1-sulfonyl-amino)-phenyl]-amide]"
< 1,0.419,–,"CCCS(=O)(=O)Nc1ccc(Cl)c(NC(=O)c2csc3c(NC4CCC(F)(F)CC4)ncnc23)c1Cl [Example 80, 4-(4,4-Difluoro-cyclohexyl-amino)-thieno[3,2-d] pyrimidine-7-carboxylic acid [2,6-dichloro-3-(propane-1-sulfonyl-amino)-phenyl]-amide]"
< 1,0.0002,< 0.1,"CCCS(=O)(=O)Nc1ccc(Cl)c(NC(=O)c2csc3c(NN4CCOCC4)ncnc23)c1Cl [Example 67, 4-(Morpholin-4-ylamino)-thieno[3,2-d] pyrimidine-7-carboxylic acid [2,6-dichloro-3-(propane-1-sulfonyl-amino)-phenyl]-amide]"

# More lines, now with the values behind:
SMILES,IC50 [1] [µM],IC50 [2] [µM],IC50 [3] [µM]
"CCCS(=O)(=O)Nc1cccc(NC(=O)c2csc3c(N)ncnc23)c1Cl [Example 25, 4-Amino-thieno[3,2-d]pyrimidine-7-carboxylic acid[2-chloro-3-(propane-1-sulfonylamino)-phenyl]-amide]",< 1,0.0072,< 0.1
"CN(C)S(=O)(=O)Nc1ccc(F)c(NC(=O)c2csc3c(N)ncnc23)c1F [Example 29, 4-Amino-N-(3-(N,N-dimethylsulfamoylamino)-2,6-difluorophenyl)thieno[3,2-d]pyrimidine-7-carboxamide]",< 1,0.088,< 0.1
"Nc1ncnc2c(C(=O)Nc3c(Cl)ccc(NS(=O)(=O)CCCF)c3F)nsc12 [Example 32, 7-Amino-isothiazolo[4,5-d]pyrimidine-3-carboxylic acid [6-chloro-2-fluoro-3-(3-fluoro-propane-1-sulfonylamino)-phenyl]-amide]",< 1,0.00018,< 0.1
"Nc1ncnc2c(C(=O)Nc3c(F)ccc(NS(=O)(=O)c4ccco4)c3F)csc12 [Example 12, 4-Amino-thieno[3,2-d]pyrimidine-7-carboxylic acid[2,6-difluoro-3-(furan-2-sulfonylamino)-phenyl]-amide]",< 1,0.00022,< 0.1
"CCCS(=O)(=O)Nc1cccc(NC(=O)c2csc3c(N)ncnc23)c1F [Example 26, 4-Amino-thieno[3,2-d]pyrimidine-7-carboxylic acid[2-fluoro-3-(propane-1-sulfonylamino)-phenyl]-amide]",< 1,0.02,< 0.1
"Nc1ncnc2c(C(=O)Nc3c(F)ccc(NS(=O)(=O)CCCF)c3F)nsc12 [Example 31, 7-Amino-isothiazolo[4,5-d]pyrimidine-3-carboxylic acid [2,6-difluoro-3-(3-fluoro-propane-1-sulfonylamino)-phenyl]-amide]",< 1,0.00082,< 0.1
"CCCS(=O)(=O)Nc1ccc(Cl)c(NC(=O)c2csc3c(N)ncnc23)c1Cl [Example 9, 4-Amino-thieno[3,2-d]pyrimidine-7-carboxylic acid[2,6-dichloro-3-(propane-1-sulfonylamino)-phenyl]-amide]",< 1,0.0001,< 0.1
"CCCNc1ncnc2c(C(=O)Nc3c(F)ccc(NS(=O)(=O)CCC)c3Cl)csc12 [Example 45, 4-Propylamino-thieno[3,2-d]pyrimidine-7-carboxylic acid [2-chloro-6-fluoro-3-(propane-1-sulfonylamino)-phenyl]-amide]",< 1,0.0041,< 0.1
"CCCS(=O)(=O)Nc1ccc(F)c(NC(=O)c2snc3c(NCC)ncnc23)c1F [Example 35, 7-Ethylamino-isothiazolo[4,3-d]pyrimidine-3-carboxylic acid [2,6-difluoro-3-(propane-1-sulfonylamino)-phenyl]-amide]",< 1,0.105,–
